In PubChem BioAssay (NCI):
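All cell lines were grown in 96-well plates and treated with compound for 48 hours. At the GI50, growth is halved. TGI is the concentration that stops growth completely.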

What was measured:
Experiment in all cases: inhibition of tumour cell growth, NCI panel, 48 h
OVCAR-8 ovarian = system: OVCAR-8 ovarian
PC-3 prostate = system: PC-3 prostate
OVCAR-4 ovarian = system: OVCAR-4 ovarian
COLO 205 colon = system: COLO 205 colon
HL-60(TB) leukemia = system: HL-60(TB) leukemia
K-562 leukemia = system: K-562 leukemia
A498 renal = system: A498 renal
UO-31 renal = system: UO-31 renal
OVCAR-5 ovarian = system: OVCAR-5 ovarian
MCF7 breast = system: MCF7 breast
HCT-116 colon = system: HCT-116 colon
MDA-MB-435 = system: MDA-MB-435
KM12 colon = system: KM12 colon
SF-295 CNS = system: SF-295 CNS
HS 578T breast = system: HS 578T breast
NCI-H522 lung = system: NCI-H522 lung
SN12C renal = system: SN12C renal
SR leukemia = system: SR leukemia
CCRF-CEM leukemia = system: CCRF-CEM leukemia
NCI/ADR-RES ovarian = system: NCI/ADR-RES ovarian
NCI-H460 lung = system: NCI-H460 lung
SK-MEL-5 melanoma = system: SK-MEL-5 melanoma
UACC-257 melanoma = system: UACC-257 melanoma
EKVX NSCLC = system: EKVX NSCLC
SF-268 CNS = system: SF-268 CNS
RPMI-8226 leukemia = system: RPMI-8226 leukemia
SNB-19 CNS = system: SNB-19 CNS
HT29 colon = system: HT29 colon
SK-MEL-2 melanoma = system: SK-MEL-2 melanoma
786-0 renal = system: 786-0 renal
SK-OV-3 ovarian = system: SK-OV-3 ovarian
LOX IMVI melanoma = system: LOX IMVI melanoma
NCI-H226 lung = system: NCI-H226 lung
IGROV1 ovarian = system: IGROV1 ovarian
SF-539 CNS = system: SF-539 CNS
DU-145 prostate = system: DU-145 prostate
U251 CNS = system: U251 CNS
SNB-75 CNS = system: SNB-75 CNS
A549 NSCLC = system: A549 NSCLC
MALME-3M melanoma = system: MALME-3M melanoma
BT-549 breast = system: BT-549 breast
HCT-15 colon = system: HCT-15 colon
T-47D breast = system: T-47D breast
SK-MEL-28 melanoma = system: SK-MEL-28 melanoma
TK-10 renal = system: TK-10 renal
M14 melanoma = system: M14 melanoma
MOLT-4 leukemia = system: MOLT-4 leukemia
HOP-62 NSCLC = system: HOP-62 NSCLC
CAKI-1 renal = system: CAKI-1 renal
HOP-92 NSCLC = system: HOP-92 NSCLC
HCC-2998 colon = system: HCC-2998 colon
SW-620 colon = system: SW-620 colon
RXF 393 renal = system: RXF 393 renal
ACHN renal = system: ACHN renal
UACC-62 melanoma = system: UACC-62 melanoma
NCI-H23 lung = system: NCI-H23 lung
MDA-MB-231 breast = system: MDA-MB-231 breast
OVCAR-3 ovarian = system: OVCAR-3 ovarian

Cc1oc2c(C(=O)N/N=C\c3ccc(O)cc3O)c[nH]c2c1C
GI50 (OVCAR-8 ovarian): 0.664 µM
TGI (OVCAR-8 ovarian): 39.7 µM
GI50 (PC-3 prostate): 0.579 µM
TGI (PC-3 prostate): > 45.6 µM
GI50 (OVCAR-4 ovarian): 0.414 µM
TGI (OVCAR-4 ovarian): > 47.1 µM
GI50 (COLO 205 colon): 0.29 µM
GI50 (HL-60(TB) leukemia): 0.337 µM
GI50 (K-562 leukemia): 1.14 µM
TGI (K-562 leukemia): > 100 µM
GI50 (A498 renal): 6.62 µM
TGI (A498 renal): 39.3 µM
GI50 (UO-31 renal): 0.208 µM
TGI (UO-31 renal): 13.9 µM
GI50 (OVCAR-5 ovarian): 3.89 µM
TGI (OVCAR-5 ovarian): > 45.2 µM
GI50 (MCF7 breast): 0.521 µM
TGI (MCF7 breast): > 33.6 µM
GI50 (HCT-116 colon): 0.424 µM
TGI (HCT-116 colon): 32.5 µM
GI50 (MDA-MB-435): 4.52 µM
TGI (MDA-MB-435): > 100 µM
GI50 (KM12 colon): 1.1 µM
TGI (KM12 colon): > 73.4 µM
GI50 (SF-295 CNS): 0.435 µM
TGI (SF-295 CNS): 29.6 µM
GI50 (HS 578T breast): 6.71 µM
TGI (HS 578T breast): > 60.7 µM
GI50 (NCI-H522 lung): 0.704 µM
TGI (NCI-H522 lung): 63.9 µM
GI50 (SN12C renal): 2.54 µM
TGI (SN12C renal): > 48.4 µM
GI50 (SR leukemia): 4.47 µM
TGI (SR leukemia): > 100 µM
GI50 (CCRF-CEM leukemia): 0.19 µM
TGI (CCRF-CEM leukemia): > 100 µM
GI50 (NCI/ADR-RES ovarian): 0.295 µM
TGI (NCI/ADR-RES ovarian): 23.3 µM
GI50 (NCI-H460 lung): 0.347 µM
TGI (NCI-H460 lung): 7.28 µM
GI50 (SK-MEL-5 melanoma): 1.02 µM
TGI (SK-MEL-5 melanoma): 15.7 µM
GI50 (UACC-257 melanoma): 0.644 µM
TGI (UACC-257 melanoma): 3.08 µM
GI50 (EKVX NSCLC): 0.46 µM
TGI (EKVX NSCLC): > 54.2 µM
GI50 (SF-268 CNS): 0.662 µM
TGI (SF-268 CNS): > 44.4 µM
GI50 (RPMI-8226 leukemia): 0.445 µM
TGI (RPMI-8226 leukemia): 17.4 µM
GI50 (SNB-19 CNS): 1.32 µM
TGI (SNB-19 CNS): > 42 µM
GI50 (HT29 colon): 2.85 µM
TGI (HT29 colon): > 48.2 µM
GI50 (SK-MEL-2 melanoma): 10.4 µM
TGI (SK-MEL-2 melanoma): > 100 µM
GI50 (786-0 renal): 0.464 µM
TGI (786-0 renal): 7.49 µM
GI50 (SK-OV-3 ovarian): 0.68 µM
TGI (SK-OV-3 ovarian): 17.4 µM
GI50 (LOX IMVI melanoma): 0.409 µM
TGI (LOX IMVI melanoma): 10.6 µM
GI50 (NCI-H226 lung): 4.14 µM
TGI (NCI-H226 lung): 24.3 µM
GI50 (IGROV1 ovarian): 0.593 µM
TGI (IGROV1 ovarian): 44.5 µM
GI50 (SF-539 CNS): 0.84 µM
TGI (SF-539 CNS): 12.5 µM
GI50 (DU-145 prostate): 1.32 µM
TGI (DU-145 prostate): > 41.1 µM
GI50 (U251 CNS): 0.57 µM
TGI (U251 CNS): 15.4 µM
GI50 (SNB-75 CNS): 3.57 µM
TGI (SNB-75 CNS): > 39.6 µM
GI50 (A549 NSCLC): 0.518 µM
TGI (A549 NSCLC): 13.2 µM
GI50 (MALME-3M melanoma): 2.23 µM
TGI (MALME-3M melanoma): 25.3 µM
GI50 (BT-549 breast): 2.05 µM
TGI (BT-549 breast): > 54.6 µM
GI50 (HCT-15 colon): 0.175 µM
TGI (HCT-15 colon): > 100 µM
GI50 (T-47D breast): 1.79 µM
TGI (T-47D breast): > 43.2 µM
GI50 (SK-MEL-28 melanoma): 2.12 µM
TGI (SK-MEL-28 melanoma): > 41.7 µM
GI50 (TK-10 renal): 1.03 µM
TGI (TK-10 renal): > 64.8 µM
GI50 (M14 melanoma): 0.756 µM
TGI (M14 melanoma): 17.3 µM
GI50 (MOLT-4 leukemia): 0.44 µM
TGI (MOLT-4 leukemia): > 100 µM
GI50 (HOP-62 NSCLC): 0.754 µM
TGI (HOP-62 NSCLC): 26.3 µM
GI50 (CAKI-1 renal): 0.739 µM
TGI (CAKI-1 renal): 26.7 µM
GI50 (HOP-92 NSCLC): 0.541 µM
TGI (HOP-92 NSCLC): 9.21 µM
GI50 (HCC-2998 colon): 0.876 µM
TGI (HCC-2998 colon): > 50.6 µM
GI50 (SW-620 colon): 0.801 µM
TGI (SW-620 colon): > 37 µM
GI50 (RXF 393 renal): 0.58 µM
TGI (RXF 393 renal): 16.7 µM
GI50 (ACHN renal): 0.339 µM
TGI (ACHN renal): 13.7 µM
GI50 (UACC-62 melanoma): 0.665 µM
TGI (UACC-62 melanoma): 8.32 µM
GI50 (NCI-H23 lung): 1.49 µM
TGI (NCI-H23 lung): 24.3 µM
GI50 (MDA-MB-231 breast): 8.13 µM
TGI (MDA-MB-231 breast): > 45.9 µM
GI50 (OVCAR-3 ovarian): 0.368 µM
TGI (OVCAR-3 ovarian): > 39.4 µM
